Assay results from patent US12568972B2, “Pyridazinol compounds and derivatives, preparation methods, herbicidal compositions and applications thereof” (Qingdao Kingagroot Chemical Compound Co., Ltd., priority 2018, dated 2026).

How the values were obtained:
Assay in all cases: Post-emergence test, weed control effect
Type in all cases: in vivo
Details in all cases: after 3 weeks
[1] = system: Amaranthus retroflexus
Text: (§1) The activity level standard of harmful plant destruction (i.e. growth inhibition rate) is as follows: • Level 10: completely dead; • Level 9: above 90% growth inhibition rate; • Level 8: above 80% growth inhibition rate; • Level 7: above 70% growth inhibition rate; • Level 6: above 60% growth inhibition rate; • Level 5: above 50% growth inhibition rate; • Level 4: above 40% growth inhibition rate; • Level 3: above 30% growth inhibition rate; • Level 2: above 20% growth inhibition rate; • Level 1: below 20% growth inhibition rate; • Level 0: no effect.
(§2) The above described growth inhibition rates are fresh weight inhibition rates.
(§3) Experiment of post-emergence test: monocotyledonous and dicotyledonous weed seeds as well as main crop seeds (i.e., wheat, corn, rice, soybean, cotton, oilseed rape, millet and sorghum) were put into a plastic pot loaded with soil, then covered with 0.5-2 cm of soil, and the seeds were allowed to grow in good greenhouse environment. The test plants were treated at 2-3 leaf stage 2-3 weeks after sowing. The test compounds of the invention were dissolved in acetone respectively, then added with Tween-80 and diluted by a certain amount of water to give solutions with certain concentrations, and added with 80% vegetable oil methyl ester synergist at 1500 g/ha. The solution was sprayed to the plants with a sprayer. The plants were cultured for 3 weeks in the greenhouse.

[2] = system: Chenopodiaceae
Text: as §1, §2, §3

[3] = system: Rorippa indica
Text: as §1, §2, §3

[4] = system: Veronica polita
Text: as §1, §2, §3

Oc1cc(C(F)(F)F)nnc1-c1cnc(F)cc1F [Compound 989]
10: weed control effect (activity level), Amaranthus retroflexus ([1]; Dose 3000 g/ha) | weed control effect (activity level), Chenopodiaceae ([2]; Dose 3000 g/ha) | weed control effect (activity level), Rorippa indica ([3]; Dose 3000 g/ha) | weed control effect (activity level), Veronica polita ([4]; Dose 3000 g/ha)

Oc1cc(C(F)(F)F)nnc1-c1cccc(Br)c1F [Compound 48]
10: weed control effect (activity level), Amaranthus retroflexus ([1]; dose 1000 g/ha) | weed control effect (activity level), Chenopodiaceae ([2]; dose 1000 g/ha) | weed control effect (activity level), Rorippa indica ([3]; dose 1000 g/ha) | weed control effect (activity level), Veronica polita ([4]; dose 1000 g/ha)

CC(C)OC(=O)OC(C)Oc1cc(C(F)(F)F)nnc1-c1ccccc1 (stereo not shown) [Compound 1-240]
10: weed control effect, Amaranthus retroflexus (activity level) ([1]; Dose 3000 g/ha) | weed control effect, Chenopodiaceae (activity level) ([2]; Dose 3000 g/ha) | weed control effect, Rorippa indica (activity level) ([3]; Dose 3000 g/ha) | weed control effect, Veronica polita (activity level) ([4]; Dose 3000 g/ha)

O=Cc1c(F)cccc1-c1nnc(C(F)(F)F)cc1O [Compound 63]
10: weed control effect (activity level), Amaranthus retroflexus ([1]; dose 1000 g/ha) | weed control effect (activity level), Chenopodiaceae ([2]; dose 1000 g/ha) | weed control effect (activity level), Rorippa indica ([3]; dose 1000 g/ha) | weed control effect (activity level), Veronica polita ([4]; dose 1000 g/ha)

Oc1cc(C(F)(F)F)nnc1-c1cc2ccccc2cn1 [Compound 743]
10: weed control effect (activity level), Amaranthus retroflexus ([1]; Dose 3000 g/ha) | weed control effect (activity level), Chenopodiaceae ([2]; Dose 3000 g/ha) | weed control effect (activity level), Rorippa indica ([3]; Dose 3000 g/ha) | weed control effect (activity level), Veronica polita ([4]; Dose 3000 g/ha)

Cc1nc2cc(-c3nnc(C(F)(F)F)cc3O)ccc2o1 [Compound 597]
10: weed control effect (activity level), Amaranthus retroflexus ([1]; Dose 3000 g/ha) | weed control effect (activity level), Chenopodiaceae ([2]; Dose 3000 g/ha) | weed control effect (activity level), Rorippa indica ([3]; Dose 3000 g/ha) | weed control effect (activity level), Veronica polita ([4]; Dose 3000 g/ha)

CCSC(=O)Oc1cc(C(F)(F)F)nnc1-c1ccc(F)c(F)c1 [Compound 1-42]
10: weed control effect, Amaranthus retroflexus (activity level) ([1]; Dose 3000 g/ha) | weed control effect, Chenopodiaceae (activity level) ([2]; Dose 3000 g/ha) | weed control effect, Rorippa indica (activity level) ([3]; Dose 3000 g/ha) | weed control effect, Veronica polita (activity level) ([4]; Dose 3000 g/ha)

CCC/C(C)=N\Oc1cc(C(F)(F)F)nnc1-c1ccc(OC)cc1 [Compound 1-171]
10: weed control effect, Amaranthus retroflexus (activity level) ([1]; Dose 3000 g/ha) | weed control effect, Chenopodiaceae (activity level) ([2]; Dose 3000 g/ha) | weed control effect, Rorippa indica (activity level) ([3]; Dose 3000 g/ha) | weed control effect, Veronica polita (activity level) ([4]; Dose 3000 g/ha)

O=S(=O)(Oc1cc(C(F)(F)F)nnc1-c1cccc(F)c1)c1ccc(Oc2ccccc2)nc1 [Compound 1-146]
10: weed control effect, Amaranthus retroflexus (activity level) ([1]; Dose 3000 g/ha) | weed control effect, Chenopodiaceae (activity level) ([2]; Dose 3000 g/ha) | weed control effect, Rorippa indica (activity level) ([3]; Dose 3000 g/ha) | weed control effect, Veronica polita (activity level) ([4]; Dose 3000 g/ha)

Oc1cc(C(F)(F)F)nnc1-c1cccnc1Cl [Compound 205]
10: weed control effect (activity level), Amaranthus retroflexus ([1]; dose 2000 g/ha) | weed control effect (activity level), Chenopodiaceae ([2]; dose 2000 g/ha) | weed control effect (activity level), Rorippa indica ([3]; dose 2000 g/ha) | weed control effect (activity level), Veronica polita ([4]; dose 2000 g/ha)

COc1ccc(-c2nnc(C(F)(F)F)cc2O)cc1 [Compound 93]
10: weed control effect (activity level), Amaranthus retroflexus ([1]; dose 1000 g/ha) | weed control effect (activity level), Chenopodiaceae ([2]; dose 1000 g/ha) | weed control effect (activity level), Rorippa indica ([3]; dose 1000 g/ha) | weed control effect (activity level), Veronica polita ([4]; dose 1000 g/ha)

Oc1cc(C(F)(F)F)nnc1-c1cccc2cccnc12 [Compound 734]
10: weed control effect (activity level), Amaranthus retroflexus ([1]; dose 1000 g/ha) | weed control effect (activity level), Chenopodiaceae ([2]; dose 1000 g/ha) | weed control effect (activity level), Rorippa indica ([3]; dose 1000 g/ha) | weed control effect (activity level), Veronica polita ([4]; dose 1000 g/ha)

O=C(CCc1ccccc1)Oc1cc(C(F)(F)F)nnc1-c1ccc(F)c(F)c1 [Compound 1-98]
10: weed control effect, Amaranthus retroflexus (activity level) ([1]; Dose 3000 g/ha) | weed control effect, Chenopodiaceae (activity level) ([2]; Dose 3000 g/ha) | weed control effect, Rorippa indica (activity level) ([3]; Dose 3000 g/ha) | weed control effect, Veronica polita (activity level) ([4]; Dose 3000 g/ha)

O=C(Oc1cc(C(F)(F)F)nnc1-c1ccc(Cl)cc1)c1ccc2ccccc2n1 [Compound 1-116]
10: weed control effect, Amaranthus retroflexus (activity level) ([1]; Dose 3000 g/ha) | weed control effect, Chenopodiaceae (activity level) ([2]; Dose 3000 g/ha) | weed control effect, Rorippa indica (activity level) ([3]; Dose 3000 g/ha) | weed control effect, Veronica polita (activity level) ([4]; Dose 3000 g/ha)

O=S(=O)(Oc1cc(C(F)(F)F)nnc1-c1ccc(C(F)(F)F)cc1)C1CC1 [Compound 1-122]
10: weed control effect, Amaranthus retroflexus (activity level) ([1]; Dose 3000 g/ha) | weed control effect, Chenopodiaceae (activity level) ([2]; Dose 3000 g/ha) | weed control effect, Rorippa indica (activity level) ([3]; Dose 3000 g/ha) | weed control effect, Veronica polita (activity level) ([4]; Dose 3000 g/ha)

Oc1cc(C(F)(F)F)nnc1-c1c(Cl)cccc1Cl [Compound 41]
10: weed control effect (activity level), Amaranthus retroflexus ([1]; dose 1000 g/ha) | weed control effect (activity level), Chenopodiaceae ([2]; dose 1000 g/ha) | weed control effect (activity level), Rorippa indica ([3]; dose 1000 g/ha) | weed control effect (activity level), Veronica polita ([4]; dose 1000 g/ha)
